According to PubChem BioAssay AID212 (DTP/NCI, 2004):
Where “and” joins values, the source holds several entries; their conditions need not be identical. Equal values may be shown once. Records with an inconclusive call do not appear.

Tested on: BDF1 mice, colon carcinoma 38 sc, T/C %
Test: NCI In Vivo Anticancer Drug Screen. Data for tumor model Colon Carcinoma 38 (subcutaneous) in B6D2F1 (BDF1) mice
Settings: endpoint: median tumor weight (est.), higher = larger tumour
In short: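 Mice with transplanted tumors are treated with compound or vehicle. Survival or tumor size is then measured in both groups. The ratio of treated to control gives the reported figure.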

[1] = dose: 100.0 mg/kg/injection, schedule: Q07DX002 (ip), vehicle: saline with Tween-80
[2] = dose: 200.0 mg/kg/injection, schedule: Q07DX002 (ip), vehicle: saline with Tween-80
[3] = dose: 400.0 mg/kg/injection, schedule: Q07DX002 (ip), vehicle: saline with Tween-80
[4] = dose: 25.0 mg/kg/injection, schedule: Q07DX002 (ip), vehicle: saline
[5] = dose: 25.0 mg/kg/injection, schedule: Q07DX003 (ip), vehicle: saline with Tween-80
[6] = dose: 50.0 mg/kg/injection, schedule: Q07DX003 (ip), vehicle: saline with Tween-80
[7] = dose: 12.5 mg/kg/injection, schedule: Q07DX003 (ip), vehicle: saline with Tween-80
[8] = dose: 100.0 mg/kg/injection, schedule: Q07DX003 (ip), vehicle: saline with Tween-80

Question: How did the T/C (dose: 50.0 mg/kg/injection, schedule: Q07DX002 (ip), vehicle: saline with Tween-80) turn out when `CN(C)C1C(=O)C(C(=O)NP(=O)(NCCCO)N(CCCl)CCCl)=C(O)C2(O)C(=O)C3=C(O)c4c(O)cccc4C(C)(O)C3CC12` (centres undefined) was run?
Answer: 82 % of control

Question: What about the T/C [1] of the same compound?
Answer: 95 % of control

Question: What about the T/C [2] of the same compound?
Answer: 56 % of control

Question: What about the T/C [3] of the same compound?
Answer: 17 % of control

Question: `c1ccc2c(c1)[As]=c1ccccc1=[As]2` (centres undefined) was tested. Which T/C (dose: 3.0 mg/kg/injection, schedule: Q07DX002 (ip), vehicle: saline) did it give?
Answer: 124 % of control

Question: For `COc1cc(C[C@H]2c3cc(OC)c(OC)cc3CCN2C)c(Oc2cc3c(cc2OC)-c2c(OC)c(OC)cc4c2[C@H](C3)N(C)CC4)cc1OC`, which T/C (dose: 25.0 mg/kg/injection, schedule: Q01DX005 (ip), vehicle: saline) is on record?
Answer: 59 % of control

Question: And the T/C (dose: 25.0 mg/kg/injection, schedule: Q04DX003 (ip), vehicle: saline)?
Answer: 116 % of control

Question: What about the T/C (dose: 50.0 mg/kg/injection, schedule: Q01DX005 (ip), vehicle: saline) of the same compound?
Answer: 198 % of control

Question: And the T/C (dose: 50.0 mg/kg/injection, schedule: Q04DX003 (ip), vehicle: saline)?
Answer: 60 % of control

Question: What about the T/C (dose: 100.0 mg/kg/injection, schedule: Q01DX005 (ip), vehicle: saline) of the same compound?
Answer: 64 % of control

Question: And the T/C (dose: 100.0 mg/kg/injection, schedule: Q04DX003 (ip), vehicle: saline)?
Answer: 76 % of control

Question: What about the T/C (dose: 200.0 mg/kg/injection, schedule: Q01DX005 (ip), vehicle: saline) of the same compound?
Answer: 36 % of control

Question: With `C[N+](C)(C)c1ncnc2nc[nH]c12` as the compound, how does the T/C [4] read?
Answer: 83 % of control

Question: And the T/C (dose: 50.0 mg/kg/injection, schedule: Q07DX002 (ip), vehicle: saline)?
Answer: 77 % of control and 98 % of control

Question: What about the T/C (dose: 100.0 mg/kg/injection, schedule: Q07DX002 (ip), vehicle: saline) of the same compound?
Answer: 96 % of control and 100 % of control

Question: And the T/C (dose: 200.0 mg/kg/injection, schedule: Q07DX002 (ip), vehicle: saline)?
Answer: 75 % of control and 85 % of control

Question: What does the source list for `C[n+]1c(-c2cccc3ccccc23)c2cc(N)ccc2c2ccccc21`?
Answer: T/C (dose: 3.12 mg/kg/injection, schedule: Q07DX002 (ip), vehicle: saline): 107 % of control; T/C (dose: 3.12 mg/kg/injection, schedule: Q07DX002 (ip), vehicle: suspension in saline): 160 % of control; T/C (dose: 6.25 mg/kg/injection, schedule: Q07DX002 (ip), vehicle: saline): 122 % of control; T/C (dose: 6.25 mg/kg/injection, schedule: Q07DX002 (ip), vehicle: suspension in saline): 110 % of control; T/C (dose: 12.5 mg/kg/injection, schedule: Q07DX002 (ip), vehicle: saline): 64 % of control and 85 % of control; T/C (dose: 12.5 mg/kg/injection, schedule: Q07DX002 (ip), vehicle: suspension in saline): 256 % of control; T/C [4]: 67 % of control and 79 % of control; T/C (dose: 25.0 mg/kg/injection, schedule: Q07DX002 (ip), vehicle: suspension in saline): 193 % of control

Question: With `COc1cc2cc[n+](C)c(Cc3ccccc3)c2cc1OC` as the compound, how does the T/C (dose: 12.5 mg/kg/injection, schedule: Q07DX003 (ip), vehicle: saline) read?
Answer: 113 % of control

Question: What about the T/C (dose: 25.0 mg/kg/injection, schedule: Q07DX003 (ip), vehicle: saline) of the same compound?
Answer: 84 % of control

Question: What about the T/C (dose: 50.0 mg/kg/injection, schedule: Q07DX003 (ip), vehicle: saline) of the same compound?
Answer: 80 % of control

Question: For `CCC[P+](c1ccccc1)(c1ccccc1)c1ccccc1`, which T/C (dose: 3.12 mg/kg/injection, schedule: Q07DX003 (ip), vehicle: saline with Tween-80) is on record?
Answer: 114 % of control and 98 % of control

Question: What about the T/C (dose: 6.25 mg/kg/injection, schedule: Q07DX003 (ip), vehicle: saline with Tween-80) of the same compound?
Answer: 96 % of control

Question: What about the T/C [5] of the same compound?
Answer: 76 % of control

Question: What about the T/C [6] of the same compound?
Answer: 73 % of control

Question: Which results are given for `Cc1ncc([N+](=O)[O-])n1CCSC(N)=O`?
Answer: T/C [7]: 111 % of control; T/C [5]: 164 % of control; T/C [8]: 108 % of control

Question: Which results are given for `Brc1ccc(C[N+]23CN4CN(CN(C4)C2)C3)cc1`?
Answer: T/C [7]: 121 % of control; T/C [5]: 79 % of control; T/C [6]: 108 % of control; T/C [8]: 95 % of control; T/C (dose: 200.0 mg/kg/injection, schedule: Q07DX003 (ip), vehicle: saline with Tween-80): 62 % of control

Question: For `Cc1ccc(Cl)c2ccccc12`, which T/C (dose: 12.5 mg/kg/injection, schedule: Q07DX002 (ip), vehicle: saline with Tween-80) is on record?
Answer: 96 % of control and 102 % of control

Question: What about the T/C (dose: 25.0 mg/kg/injection, schedule: Q07DX002 (ip), vehicle: saline with Tween-80) of the same compound?
Answer: 92 % of control

Question: And the T/C [1]?
Answer: 89 % of control and 96 % of control

Question: What about the T/C [2] of the same compound?
Answer: 88 % of control and 96 % of control

Question: What about the T/C [3] of the same compound?
Answer: 87 % of control
